Laboratory results: patent EP1394219A1, “PH sensitive cyanine dyes as reactive fluorescent reagents” (CARNEGIE MELLON UNIVERSITY, priority 1999, dated 2000)
Like-named read-outs stand apart in the source and are kept apart here.

What was measured:
[1] = phosphate buffer, pH 5.85
Protocol: (§1) The pKa was measured as the ratio of emission intensity at the pH measured and the emission intensity for maximum emission, or I/Io. […] The pKa can be calculated to be where I/Io = 0.5 or where the fluorescent probe is 50% protonated.

[2] = Fluorescence and UV absorbance properties of the dyes in phosphate buffers of different pH, pKa from emission intensity ratio I/Io; conditions: for λmax pH 5.00 / λmaxpH 10.00: UV absorbance maximum; for λmax pH 5.00 / λmaxpH 10.00 / λEm(nm): phosphate buffer; for λmaxpH 10.00: pH 10.00; for λEm(nm): fluorescence emission maximum; for pKa: phosphate buffers, pH 5.85
Protocol: as §1

[3] = cited from earlier work; for pKa: product literature value, may be different in a cellular environment

SMILES	pKa [1]	λmax pH 5.00 [2]	λmaxpH 10.00 [2]	λEm(nm) [2]	pKa [2]	solubility in DMSO [3]	pKa [3]
CC1(C)C(=CC=CC2=[N+](CCCCCC(=O)O)c3ccc(S(=O)(=O)[O-])cc3C2(C)C)Nc2ccc(S(=O)(=O)O)cc21 [Compound 3.39]	7.75	550nm	476nm	565nm	–	–	–
CC1(C)C(=C/C=C/C=C/C2=[N+](CCCCS(=O)(=O)[O-])c3ccc(CC(=O)O)cc3C2(C)C)Nc2ccc(S(=O)(=O)O)cc21 [Compound 4]	6.4	650nm	515nm	665nm	–	–	–
CC[N+]1=C(/C=C/C=C/C=C2Nc3ccc(CC(=O)O)cc3C2(C)C)C(C)(C)c2cc(S(=O)(=O)[O-])ccc21 [Compound 5]	7.5	650nm	484nm	665nm	–	–	–
CC1(C)/C(=C\C=C\c2sc3ccccc3[n+]2CCCCS(=O)(=O)O)Nc2ccc(CC(=O)O)cc21 [Compound 6]	–	552nm	433nm	580nm	9.8	–	–
CC1(C)\C(=C/C=C/C=C/c2sc3ccccc3[n+]2CCCCCC(=O)O)Nc2ccc(S(=O)(=O)O)cc21 [Compound 7]	–	640nm	531nm	670nm	6.85	–	–
C[N+]1=C(/C=C/C=C/C=C2/Nc3ccc(S(=O)(=O)O)cc3C2(C)C)C(C)(C)c2cc(CN)ccc21 [Compound 8]	–	650nm	531nm	665nm	7.25	–	–
CC1(C)C(/C=C/C=C/C=C2Nc3ccc4c(S(=O)(=O)O)cc(S(=O)(=O)O)cc4c3C2(C)C)=[N+](CCCCCC(=O)O)c2ccc(S(=O)(=O)[O-])cc21 [Compound 9]	7.25	655nm	522nm	680nm	–	–	–
CC1(C)C(=C/C=C/C=C/C2=[N+](CCCCCC(=O)NN)c3ccc(S(=O)(=O)[O-])cc3C2(C)C)Nc2ccc(S(=O)(=O)O)cc21 [Compound 10]	7.5	653nm	501nm	660nm	–	–	–
c1ccc2c(CN3CCOCC3)c3ccccc3c(CN3CCOCC3)c2c1 [LYSOSENSOR BLUE DND-167]	–	–	–	–	–	soluble	5.1
CN(C)Cc1c2ccccc2c(CN(C)C)c2ccccc12 [LYSOSENSOR BLUE DND-192]	–	–	–	–	–	soluble	7.5
CN(C)CCNc1ccc2c3c1cccc3c(=O)n1c3ccccc3nc21 [LYSOSENSOR GREEN DND-153]	–	–	–	–	–	soluble	7.5
O=c1c2cccc3c(NCCN4CCOCC4)ccc(c32)c2nc3ccccc3n12 [LYSOSENSOR GREEN DND-189]	–	–	–	–	–	soluble	5.2
